Source: PMC5429796, “Engineered P450 biocatalysts show improved activity and regio-promiscuity in aromatic nitration” (Scientific Reports, 2017)

Columns and labels:
TxtE [1] = target: T1, TxtE (Streptomyces scabiei, UniProt C9ZDC6); assay: UV-Vis difference spectroscopy (Type I shift) titration of Trp analogues to 1.5 µM purified P450 in 25 mM Tris-HCl, pH 8.0, fitted to Michaelis-Menten type equation; at least three repeats.; type: binding; settings: n = 3
T1 construct: wild type, pET28b construct, Ni-NTA purified
T1 sequence (C9ZDC6 1-406): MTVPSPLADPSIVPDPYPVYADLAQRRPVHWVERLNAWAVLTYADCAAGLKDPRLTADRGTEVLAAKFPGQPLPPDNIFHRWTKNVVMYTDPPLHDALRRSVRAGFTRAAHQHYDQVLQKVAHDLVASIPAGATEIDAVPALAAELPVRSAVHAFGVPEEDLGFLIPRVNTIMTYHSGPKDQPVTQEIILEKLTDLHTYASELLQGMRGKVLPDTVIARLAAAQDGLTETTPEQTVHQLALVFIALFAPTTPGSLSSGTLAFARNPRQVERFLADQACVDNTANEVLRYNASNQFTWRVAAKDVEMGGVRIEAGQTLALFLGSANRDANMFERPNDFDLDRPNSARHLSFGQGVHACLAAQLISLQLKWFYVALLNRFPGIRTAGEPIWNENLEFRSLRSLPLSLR
Protocol: (§1) The ferric heme of enzymes was then saturated by bubbling carbon monoxide (Airgas) and the spectra of the saturated enzyme solutions were recorded. Sodium dithionite solution (30 μL, 0.5 M) was then added to reduce ferric ion, and reduced spectra were taken subsequently. CO reduced difference spectra of all P450s were created by […]. Data were further analyzed by Excel. […] The changes in absorbance (ΔA) were determined by subtracting the absorbance at ~420 nm from that at ~390 nm. Data were then fitted to the equation of ΔA = ΔAmax[L]/(Kd + [L]) using GraphPad Prism 4.
(§2) in 25 mM Tris-HCl, pH 8.0. All experiments were repeated at least three times. Data
(§3) were fitted to the Michaelis-Menten equation.

TB14 [2] = target: T2, TB14 (UniProt C9ZDC6+P14779); assay: Binding affinities of Trp analogues toward TB14 (spectral shift); settings: for Kd: read-out: TB14 Kd, 1.5 µM enzyme, 25 mM Tris-HCl pH 8.0
T2 construct: BM3R: reductase domain of CYP102A1 (P450BM3); made in house; host or cells: E. coli BL21-GOLD (DE3), pET28b-TxtE-BM3R
Protocol: as §1
(§4) in 25 mM Tris-HCl, pH 8.0. All experiments were repeated at least three times. […]

TB14 [3] = target: T2, TB14; assay: Nitration of Trp analogues by TB14 (HPLC, 45 min); type: biochemical; settings: for nitrated a significant amount by TB14: after 45 mins, 0.5 mM substrate, 1.5 µM P450
Protocol: (§5) The reactions were prepared as described previously and incubated at 20 °C, 300 rpm for 45 minutes. All experiments were repeated at least three times.
(§6) After centrifugation, 10 μl solutions were analyzed by HPLC. […] All reactions were independently repeated at least three times. In TTN and coupling efficiency studies, 0.5 µM P450s and 0.5 mM substrate were used. […] All experiments were performed at least in triplication.

TxtE [4] = target: T3, TxtE (Streptomyces scabiei, UniProt C9ZDC6); type: biochemical, Streptomyces scabies; set-up: made in house; settings: for nitrated a significant amount by TxtE: after 45 mins, 0.5 mM substrate, 1.5 µM P450
Protocol: as §5, §6

TB14 [5] = target: T2, TB14; assay: Scaled-up TB14 nitration of 4-Me-DL-Trp (Marfey's derivatization, NMR); type: biochemical; settings: scaled-up reaction with 4-Me-DL-Trp
Protocol: The reactions in a 200-ml flask were incubated at 20 °C, 250 rpm overnight, and then terminated by 20 mL methanol or acidification to pH 1.0 with 6 M HCl. After centrifugation, the supernatants were concentrated in vacuo and then freeze-dried. The products were redissolved in 3 ml methanol for semi-preparation[22].
4-Me-Trp and nitrated 4-Me-Trp from enzyme reactions were reacted with Marfey’s reagent following manufacture manual (Thermo Scientific). Derivatized products were analyzed by LC-MS with A SHIMADZU Prominence UPLC system fitted with a Waters SymmetryShieldTM RP-C18 column (3.5 µm, 4.6 × 100 mm) and a Linear Ion Trap Quadrupole LC/MS/MS Mass Spectrometer system. The flow rate was 0.5 mL/min. The column was eluted with 90% solvent A (0.05 M triethylammonium acetate, pH 3.0), 10% solvent B (acetonitrile) for 2 min and then with a linear gradient of 10–50% solvent B for 60 min. The column was then cleaned by 50% solvent B for 5 min followed by a re-equilibration with 10% solvent B for 2 min. For MS detection, the turbo spray conditions used were: curtain gas: 30 psi; ion spray voltage: 5000 V; temperature: 550 °C; ion source gas 1: 30 psi; ion source gas 2: 20 psi.

TB14 [6] = target: T4, TB14 (UniProt C9ZDC6); assay: Binding affinities of Trp analogues toward TB14 (spectral shift); settings: 1.5 µM enzyme, 25 mM Tris-HCl pH 8.0
T4 construct: BM3R: reductase domain of CYP102A1 (P450BM3); made in house; host or cells: E. coli BL21-GOLD (DE3), pET28b-TxtE-BM3R
Protocol: as §1, §4

TxtE [7] = target: T3, TxtE; assay: biochemical; type: binding, Streptomyces scabies; set-up: made in house; host or cells: E. coli BL21-GOLD (DE3), pET28b
Protocol: as §1, §2, §3

TB19 = assay: UV-Vis difference spectroscopy (Type I shift, ΔA ~390 minus ~420 nm) titration of Trp to 1.5 µM purified P450 in 25 mM Tris-HCl, pH 8.0, hyperbolic fit; at least three repeats.; type: binding; settings: n = 3
Protocol: (§7) We next determined coupling efficiency to evaluate the extent to which linker length and structural swapping may affect electron transfer compatibility during nitration reaction (Table 1). […] Additionally, we determined total turnover number (TTN) as nmol product per nmol P450 in all reactions (Table 1).
as §1

TB15 = assay: as above; type: binding; settings: n = 3
Protocol: as §7, §1

TB13-Q = assay: as above; type: binding; settings: n = 3
Protocol: as §7, §1

TB27 = assay: as above; type: binding; settings: n = 3
Protocol: as §7, §1

TB11 = assay: as above; type: binding; settings: n = 3
Protocol: as §7, §1

TB22 = assay: as above; type: binding; settings: n = 3
Protocol: as §7, §1

TB17 = assay: as above; type: binding; settings: n = 3
Protocol: as §7, §1

TB13S = assay: as above; type: binding; settings: n = 3
Protocol: as §7, §1

TB24 = assay: as above; type: binding; settings: n = 3
Protocol: as §7, §1

TB12 = assay: as above; type: binding; settings: n = 3
Protocol: as §7, §1

TB13 = assay: as above; type: binding; settings: n = 3
Protocol: as §7, §1

TB16 = assay: as above; type: binding; settings: n = 3
Protocol: as §7, §1

[8] = read-out: TxtE Kd (µM), TB14 Kd

SMILES: NC(Cc1c[nH]c2cccc(F)c12)C(=O)O (racemic) [4-F-Trp, 4-fluoro-DL-tryptophan]
- Kd (TxtE [1]): 190 µM

SMILES: Cc1cccc2[nH]cc(CC(N)C(=O)O)c12 (racemic) [4-Me-Trp, 4-Me-DL-Tryptophan]
- binding affinity, times higher than 4-F-DL-Trp (TB14 [2]; from Table S1): 13 times
- Kd (TB14 [2]): 14 ± 1 µM
- nitration by TB14, times favoured over 4-F-DL-Trp (TB14 [3]; 45 min, Fig. 3): about 8 times
- nitrated a significant amount by TB14 (TB14 [3]): nitrated a significant amount
- nitrated a significant amount by TxtE (TxtE [4]): nitrated a significant amount

SMILES: Cc1cccc2[nH]cc(CC(N)C(=O)O)c12 (racemic) [4-Me-Trp, 4-methyl-DL-tryptophan]
- Kd (TxtE [1]): 10 µM

SMILES: Cc1ccc2[nH]cc(CC(N)C(=O)O)c2c1 (racemic) [5-Me-Trp, 5-methyl-DL-tryptophan]
- Kd (TxtE [1]; [8]): 35 µM

SMILES: COc1ccc2[nH]cc(CC(N)C(=O)O)c2c1 (racemic) [5-MeO-Trp, 5-methoxy-DL-tryptophan]
- Kd (TxtE [1]; [8]): 29 µM

SMILES: NC(Cc1c[nH]c2cc(F)ccc12)C(=O)O (racemic) [6-F-Trp, 6-fluoro-DL-tryptophan]
- Kd (TxtE [1]): 73 µM

SMILES: Cc1cccc2c(CC(N)C(=O)O)c[nH]c12 (racemic) [7-Me-Trp, 7-methyl-DL-tryptophan]
- Kd (TxtE [1]; [8]): 13 µM

SMILES: O=C(O)C1Cc2c([nH]c3ccccc23)CN1 (stereo not drawn) [2,3,4,9-Tetrahydro-1H-β-carboline-3-carboxynate]
- Kd (TB14 [2]): 730 ± 86 µM

SMILES: O=C(O)C1Cc2c([nH]c3ccccc23)CN1 (stereo not drawn) [2,3,4,9-tetrahydro-1H-β-carboline-3-carboxylate]
- Kd (TxtE [1]; [8]): 580 µM

SMILES: NC(Cc1c[nH]c2cccc(F)c12)C(=O)O (centres unmarked) [4-F-Trp]
- Kd (TB14 [2]): 180 ± 13 µM
- nitrated a significant amount by TB14 (TB14 [3]): not

SMILES: Cc1cccc2[nH]cc(C[C@H](N)C(=O)O)c12 [4-Me-L-Trp]
- consumption of substrate in the TB14 reaction (TB14 [5]): ~ 85%

SMILES: N[C@@H](Cc1c[nH]c2ccc(F)cc12)C(=O)O [5-F-L-Trp, 5-fluoro-L-tryptophan]
- Kd (TxtE [1]): 84 µM

SMILES: N[C@@H](Cc1c[nH]c2ccc(F)cc12)C(=O)O [5-F-L-Trp]
- Kd (TB14 [2]): 78 ± 6 µM
- substrate ranking in the TB14 reaction (TB14 [3]; 45 min): comparable to Trp as the best
- nitrated a significant amount by TB14 (TB14 [3]): nitrated a significant amount
- substrate ranking in the TxtE reaction (TxtE [4]; 45 min): best substrate of TxtE
- nitrated a significant amount by TxtE (TxtE [4]): nitrated a significant amount

SMILES: Cc1ccc2[nH]cc(CC(N)C(=O)O)c2c1 (centres unmarked) [5-Me-Trp]
- Kd (TB14 [2]): 30 ± 1 µM
- nitrated a significant amount by TB14 (TB14 [3]): nitrated a significant amount
- nitrated a significant amount by TxtE (TxtE [4]): nitrated a significant amount

SMILES: COc1ccc2[nH]cc(CC(N)C(=O)O)c2c1 (centres unmarked) [5-MeO-Trp]
- Kd (TB14 [2]): 26 ± 2 µM
- nitrated a significant amount by TB14 (TB14 [3]): not

SMILES: N[C@@H](Cc1c[nH]c2ccc(O)cc12)C(=O)O [5-OH-L-Trp, 5-hydroxy-L-tryptophan]
- Kd (TxtE [1]; [8]): 340 µM

SMILES: N[C@@H](Cc1c[nH]c2ccc(O)cc12)C(=O)O [5-OH-L-Trp]
- Kd (TB14 [2]): 450 ± 16 µM

SMILES: N[C@@H](Cc1c[nH]c2cc(F)ccc12)C(=O)O [6-F-Trp]
- Kd (TB14 [2]): 65 ± 5 µM
- nitrated a significant amount by TB14 (TB14 [3]): nitrated a significant amount
- nitrated a significant amount by TxtE (TxtE [4]): nitrated a significant amount

SMILES: N[C@@H](Cc1c[nH]c2ncccc12)C(=O)O [7-Azatryptophan]
- Kd (TB14 [6]): 26 ± 1 µM
- Kd (TxtE [7]): 17 ± 1 µM

SMILES: Cc1cccc2c(CC(N)C(=O)O)c[nH]c12 (centres unmarked) [7-Me-Trp]
- Kd (TB14 [2]): 11 ± 1 µM
- nitrated a significant amount by TB14 (TB14 [3]): not

SMILES: N[C@H](Cc1c[nH]c2ccccc12)C(=O)O [D-Trp, D-tryptophan]
- Kd (TxtE [1]; [8]): 430 µM

SMILES: N[C@H](Cc1c[nH]c2ccccc12)C(=O)O [D-Trp]
- Kd (TB14 [2]): 470 ± 25 µM

SMILES: O=C(O)C(=O)Cc1c[nH]c2ccccc12 [Indole-3-pyruvic acid]
- Kd (TB14 [6]): 480 ± 32 µM
- Kd (TxtE [7]): 390 ± 43 µM

SMILES: N[C@@H](Cc1c[nH]c2ccccc12)C(=O)O [L-Trp, L-tryptophan]
- Kd (TB14 [6]): 17 ± 1 µM
- Kd (TxtE [7]): 25 ± 1 µM

SMILES: N[C@H](CO)Cc1c[nH]c2ccccc12 [L-tryptophanol]
- Kd (TB14 [2]): 280 ± 43 µM
- Kd (TxtE [1]; [8]): 220 µM

SMILES: NCCc1c[nH]c2ccc(O)cc12 [Serotonin]
- Kd (TB14 [6]): 310 ± 39 µM
- Kd (TxtE [7]): 320 ± 31 µM

SMILES: N[C@@H](Cc1c[nH]c2ccccc12)C(=O)O [Trp, L-tryptophan]
- Kd (TB19): 16 ± 0.8 µM
- Kd (TB15): 21.4 ± 0.9 µM
- Kd (TB13-Q): 21.5 ± 0.8 µM
- Kd (TB27): 16.2 ± 1.1 µM
- Kd (TB11): 16.2 ± 0.6 µM
- Kd (TB22): 27.1 ± 1.3 µM
- Kd (TB17): 15.5 ± 0.6 µM
- Kd (TB13S): 19.3 ± 0.6 µM
- Kd (TB24): 14.9 ± 0.3 µM
- Kd (TB12): 22.3 ± 1.4 µM
- Kd (TB13): 21.3 ± 0.4 µM
- Kd (TB16): 18.9 ± 1 µM

SMILES: NCCc1c[nH]c2ccccc12 [Tryptamine]
- Kd (TB14 [6]): 60 ± 8 µM
- Kd (TxtE [7]): 68 ± 6 µM

SMILES: c1ccc2[nH]ccc2c1 [indole]
- interaction with TB14 in spectroscopic analysis (Type I spectral shift) (TB14 [2]): no detectable level of interaction
- interaction with TxtE in spectroscopic analysis (TxtE [7]): no detectable level of interaction

SMILES: CC(N)(Cc1c[nH]c2ccccc12)C(=O)O (stereo not drawn) [α-Me-Trp]
- Kd (TB14 [2]): 95 ± 9 µM
- Kd (TxtE [7]; read-out: TxtE Kd, 1.5 µM enzyme, 25 mM Tris-HCl pH 8.0): 100 ± 4 µM
- nitrated a significant amount by TB14 (TB14 [3]): not
